Assay results: US9029582B2, “Pharmaceutical composition” (Capital, Business Y Gestion de Finanzas S.L., priority 2011, dated 2015)

How the values were obtained:
[1] = Stability test of the fulvestrant solution in acetic acid during 6 hours at room temperature (HPLC titer and impurities); format: physicochemical; conditions: fulvestrant in glacial acetic acid
Description: To a 10 mL beaker, fitted with a magnetic stirrer, 2.5 mL glacial acetic acid, Merck lot K 36685863, is added.
Fifty mg Fulvestrant from Scinopharm, lot#70850AA003 were weighed using an Ohaus model Adventurer balance.
Stirring of acetic acid is started and Fulvestrant is slowly added which is rapidly dissolved. After all Fulvestrant was added stirring is continued for 5 minutes.
Stirring is stopped and the solution is left at room temperature for 6 hours, then dissolution is analyzed in terms of titer and purity by HPLC, and compared to Scinopharm Fulvestrant as used for manufacturing the lyophilizate. HPLC determinations were carried out on an HPLC Waters with a Waters 1525 binary pump, Waters 717 autosampler, and a Waters 2996 diode array detector; the HPLC column used for determining titer and purity is an Agilent Eclipse XDB-C8 3.5 u 4.6×150 Rapid Res column; the chromatographic method corresponds to US Pharmacopeia (USP, 34 (2011)) monograph for Fulvestrant.

[2] = cited from earlier work
[3] = Dissolution / reconstitution time at 50 mg/mL in castor oil, ethanol and benzyl alcohol solvent (benzyl benzoate-free); format: physicochemical; conditions: solvent of castor oil and benzyl benzoate-free alcohol mixtures
Description: The lyophilizate should be reconstituted within a reasonable period, typically of less than 2 minutes (5); if reconstitution time is excessive, that is, more than 3 minutes, the user may get impatient or frustrated (6). […] This comparison was performed by dissolving fulvestrant at a concentration of 50 mg/mL, using a solvent comprising castor oil and benzyl benzoate-free alcohol mixtures.
A 50 mL Schott, type I, glass vial is placed on an Ohaus Adventurer balance. Then, 3.12 g Merck ethanol, 4.17 g Sigma-Aldrich benzyl alcohol and 12.70 g Sigma-Aldrich castor oil are added.
With the aid of a 1000 uL Eppendorf Research micropipette, 5 mL of the previously prepared solvent was added into an 11 mL Nuova Ompi type I of glass vial. The vial is capped with a solution S-additive plug from WestPharma and crimped with an aluminum seal.
The process for reconstituting a vial of lyophilizate of example 1 with the solvent of said example, using a Needle-less Transfer System Transfer Device 20/20 w/150 mic Filter Sterile from Westpharma, FIG. 9, is as follows:
10. The complete content of the syringe is discharged into the lyophilizate vial. […]
Using a Sper Scientific timer, it was determined that less than 90 seconds were required for reconstituting the lyophilizate. […]
It was determined that more than 60 minutes were required to completely dissolve Fulvestrant in the solvent using a Sper Scientific timer.

C[C@]12CC[C@@H]3c4ccc(O)cc4C[C@@H](CCCCCCCCC[S+]([O-])CCCC(F)(F)C(F)(F)F)[C@H]3[C@@H]1CC[C@@H]2O (some centres unmarked) [Fulvestrant]
titer of the solution [1]: 99.2% | total impurities in the solution [1]: 0.1% | solubility in castor oil with organic solvents (alcohol) and a non-aqueous ester-type solvent ([2]; carrier of US 6,774,122): at least 50 mg/mL | solubility in ethanol ([2]; ethanol, ref (3) US 6,774,122): highly soluble | fulvestrant solubility in propylene glycol ([2]; propylene glycol, according to ref (7) US 2009/0227549): 4000 µg/mL | solubility in tert-butanol ([2]; tert-butanol, ref (7)): highly soluble | solubility in water ([2]; water, ref (3)): practically insoluble | dissolution time [3]: more than 60 minutes
